# According to patent US20090076044A1, “VEGFR INHIBITORS CONTAINING A ZINC BINDING MOIETY” (priority 2007, published 2009):
# Assays:
# Type in all cases: biochemical
# [1] = system: HDAC; assay: HDAC fluorimetric assay kit (HeLa nuclear extract)
# Method: (b) An In Vitro Assay which Determines the Ability of a Test Compound to Inhibit HDAC Enzymatic Activity.
# HDAC inhibitors were screened using an HDAC fluorimetric assay kit (AK-500, Biomol, Plymouth Meeting, Pa.). Test compounds were dissolved in dimethylsulphoxide (DMSO) to give a 20 mM working stock concentration. Fluorescence was measured on a WALLAC Victor 2 plate reader and reported as relative fluorescence units (RFU). Data were plotted using GraphPad Prism (v4.0a) and IC50's calculated using a sigmoidal dose response curve fitting algorithm. Each assay was setup as follows: Defrosted all kit components and kept on ice until use. Diluted HeLa nuclear extract 1:29 in Assay Buffer (50 mM Tris/Cl, pH 8.0, 137 mM NaCl, 2.7 mM KCl, 1 mM MgCl2). Prepared dilutions of Trichostatin A (TSA, positive control) and tested compounds in assay buffer (5× of final concentration). Diluted Fluor de Lys™ Substrate in assay buffer to 100 uM (50 fold=2× final). Diluted Fluor de Lys™ developer concentrate 20-fold (e.g. 50 μl plus 950 μl Assay Buffer) in cold assay buffer. Second, diluted the 0.2 mM Trichostatin A 100-fold in the 1× Developer (e.g. 10 μl in 1 ml; final Trichostatin A concentration in the 1× Developer=2 μM; final concentration after addition to HDAC/Substrate reaction=1 μM). Added Assay buffer, diluted trichostatin A or test inhibitor to appropriate wells of the microtiter plate. Added diluted HeLa extract or other HDAC sample to all wells except for negative controls. Allowed diluted Fluor de Lys™ Substrate and the samples in the microtiter plate to equilibrate to assay temperature (e.g. 25 or 37° C. Initiated HDAC reactions by adding diluted substrate (25 μl) to each well and mixing thoroughly. Allowed HDAC reactions to proceed for 1 hour and then stopped them by addition of Fluor de Lys™ Developer (50 μl). Incubated plate at room temperature (25° C.) for 10-15 min. Read samples in a microtiter-plate reading fluorimeter capable of excitation at a wavelength in the range 350-380 nm and detection of emitted light in the range 440-460 nm.
# [2] = biological target: T1, human VEGFR2 (Homo sapiens, UniProt P35968); assay: VEGFR2/KDR radioisotope kinase assay; conditions: 100 μM ATP; read-out: VEGFR2 IC50
# T1 construct: kinase domain (amino acids 790 to end) fragment; 6xHis (N); made in house; host or cells: Sf21 insect cells (baculovirus)
# Method: (a) An In Vitro Assay which-Determines the Ability of a Test Compound to Inhibit a Receptor Tyrosine Kinase.
# The ability of compounds to inhibit receptor kinase (VEGFR2 and PDGFR-beta) activity was assayed using standard radioisotope assay for kinase. […] The proteins were purified using Ni2+/NTA agarose affinity column to purity
# >85% as determined by coomassie blue-stained SDS-PAGE gel. For VEGFR2/KDR assay, p33 ATP tracers were incubated with purified recombinant VEGFR2 kinase to monitor the enzyme activity. In this assay, reactions were carried out in the presence of 0.1 mg/ml VEGFR2 kinase and 0.33 mg/ml myelin basic protein. The reaction was carried out at 30° C. for 120 minutes in a final assay condition contained 50 mM Tris-HCl, pH 7.5, 300 mM NaCl, 0.1 mM EGTA, 0.03% Brij 35, 270 mM sucrose, 1 mM benzamidine, 0.2 mM PMSF, 0.1% 2-mercaptoethanol and 100 μM ATP. An equal volume of 25% TCA was added to stop the reaction and precipitate the labeled proteins. Precipitated proteins were trapped onto glass fiber B filterplates and excess unlabeled p33 ATP was washed off. The plates were allowed to air-dry prior to the addition of 30 uL/well of Packard Microscint 20. The amount of incorporated isotope was measured using a Perkin Elmer TopCount plate reader. Different concentrations of compounds were added to reaction to assess the activity of compounds to inhibit VEGFR2 kinase. IC50 was calculated using Prism software with sigmoidal dose-response curve fitting.
# [3] = biological target: T2, human EGFR (Homo sapiens, UniProt P00533); assay: EGFR kinase assay (HTScan EGF Receptor Kinase Assay Kit, DELFIA); conditions: 200 μM ATP
# T2 construct: human EGFR (His672-Ala1210); purchased Cell Signaling Technologies; host or cells: baculovirus expression system
# Method: (e) An In Vitro Assay which Determines the Ability of a Test Compound to Inhibit EGFR Kinase.
# The ability of compounds to inhibit receptor kinase (EGFR) activity was assayed using HTScan™ EGF Receptor Kinase Assay Kits (Cell Signaling Technologies, Danvers, Mass.). EGFR tyrosine kinase was obtained as GST-kinase fusion protein which was produced using a baculovirus expression system with a construct expressing human EGFR (His672-Ala1210) (GenBank Accession No. NM_005228) with an amino-terminal GST tag. The protein was purified by one-step affinity chromatography using glutathione-agarose. An anti-phosphotyrosine monoclonal antibody, P-Tyr-100, was used to detect phosphorylation of biotinylated substrate peptides (EGFR), Biotin-PTP1B (Tyr66). Enzymatic activity was tested in 60 mM HEPES, 5 mM MgCl2 5 mM MnCl2 200 μM ATP, 1.25 mM DTT, 3 μM Na3VO4, 1.5 mM peptide, and 50 ng EGF Receptor Kinase. Bound antibody was detected using the DELFIA system (PerkinElmer, Wellesley, Mass.) consisting of DELFIA® Europium-labeled Anti-mouse IgG (PerkinElmer, #AD0124), DELFIA® Enhancement Solution (PerkinElmer, #1244-105), and a DELFIA® Streptavidin coated, 96-well Plate (PerkinElmer, AAAND-0005). Fluorescence was measured on a WALLAC Victor 2 plate reader and reported as relative fluorescence units (RFU). Data were plotted using GraphPad Prism (v4.0a) and IC50's calculated using a sigmoidal dose response curve fitting algorithm.
# Test compounds were dissolved in dimethylsulfoxide (DMSO) to give a 20 mM working stock concentration. Each assay was setup as follows: Added 100 μl of 10 mM ATP to 1.25 ml 6 mM substrate peptide. Diluted the mixture with dH2O to 2.5 ml to make 2×ATP/substrate cocktail ([ATP]=[…], [substrate]=3 mM). Immediately transfer enzyme from −80° C. to ice. Allowed enzyme to thaw on ice. Microcentrifuged briefly at 4° C. to bring liquid to the bottom of the vial. Returned immediately to ice. Added 10 μl of DTT (1.25 mM) to 2.5 ml of 4× HTScan™ Tyrosine Kinase Buffer (240 mM HEPES pH 7.5, 20 mM MgCl2, 20 mM MnCl, 12 mM NaVO3) to make DTT/Kinase buffer. Transfer 1.25 ml of DTT/Kinase buffer to enzyme tube to make 4× reaction cocktail ([enzyme]=4 ng/μL in 4× reaction cocktail). Incubated 12.5 μl of the 4× reaction cocktail with 12.5 μl/well of prediluted compound of interest (usually around 10 μM) for 5 minutes at room temperature. Added 25 μl of 2×ATP/substrate cocktail to 25 μl/well preincubated reaction cocktail/compound. Incubated reaction plate at room temperature for 30 minutes. Added 50 μl/well Stop Buffer (50 mM EDTA, pH 8) to stop the reaction. Transferred 25 μl of each reaction and 75 μl dH2O/well to a 96-well streptavidin-coated plate and incubated at room temperature for 60 minutes. Washed three times with 200 μl/well PBS/T (PBS, 0.05% Tween-20). Diluted primary antibody, Phospho-Tyrosine mAb (P-Tyr-100), 1:1000 in PBS/T with 1% bovine serum albumin (BSA). Added 100 μl/well primary antibody. Incubated at room temperature for 60 minutes. Washed three times with 200 μl/well PBS/T. Diluted Europium labeled anti-mouse IgG 1:500 in PBS/T with 1% BSA. Added 100 μl/well diluted antibody. Incubated at room temperature for 30 minutes. Washed five times with 200 μl/well PBS/T. Added 100 μl/well DELFIA® Enhancement Solution. Incubated at room temperature for 5 minutes. Detected 615 nm fluorescence emission with appropriate Time-Resolved Plate Reader.
# T2 sequence (P00533 672-1210): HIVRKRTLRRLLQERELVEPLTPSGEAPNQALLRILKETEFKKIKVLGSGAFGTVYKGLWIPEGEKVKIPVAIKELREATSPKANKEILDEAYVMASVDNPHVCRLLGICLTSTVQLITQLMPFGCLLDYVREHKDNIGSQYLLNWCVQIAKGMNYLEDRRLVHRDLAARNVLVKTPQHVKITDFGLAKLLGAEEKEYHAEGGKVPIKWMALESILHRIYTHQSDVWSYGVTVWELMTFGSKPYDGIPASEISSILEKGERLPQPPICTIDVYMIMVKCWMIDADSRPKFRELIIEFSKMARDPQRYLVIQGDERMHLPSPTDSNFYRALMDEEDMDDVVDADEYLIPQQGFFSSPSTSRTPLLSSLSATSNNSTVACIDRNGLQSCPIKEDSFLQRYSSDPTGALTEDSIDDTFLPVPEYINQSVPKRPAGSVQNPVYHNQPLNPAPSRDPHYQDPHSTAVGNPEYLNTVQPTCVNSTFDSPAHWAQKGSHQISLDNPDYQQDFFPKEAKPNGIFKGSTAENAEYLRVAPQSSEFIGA
# T1 sequence (P35968 790-1356 limits assumed): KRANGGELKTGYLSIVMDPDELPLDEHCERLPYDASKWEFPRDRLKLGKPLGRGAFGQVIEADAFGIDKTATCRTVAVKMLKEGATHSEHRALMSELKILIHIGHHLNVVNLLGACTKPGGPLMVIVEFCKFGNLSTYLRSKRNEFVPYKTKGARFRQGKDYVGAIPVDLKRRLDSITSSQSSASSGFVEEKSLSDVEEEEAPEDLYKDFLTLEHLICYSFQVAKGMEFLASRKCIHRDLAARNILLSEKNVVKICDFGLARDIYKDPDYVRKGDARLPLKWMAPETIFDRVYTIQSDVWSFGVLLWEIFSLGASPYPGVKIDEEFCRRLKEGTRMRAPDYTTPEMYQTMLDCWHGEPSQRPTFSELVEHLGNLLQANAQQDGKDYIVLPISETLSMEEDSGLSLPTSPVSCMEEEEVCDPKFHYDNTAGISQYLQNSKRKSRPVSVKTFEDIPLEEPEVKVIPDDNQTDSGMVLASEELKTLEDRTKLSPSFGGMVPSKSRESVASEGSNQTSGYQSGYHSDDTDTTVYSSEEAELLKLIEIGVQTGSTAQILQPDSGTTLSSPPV
SMILES,IC50 [1] [nM],IC50 [2] [nM],IC50 [3] [nM]
"COc1cc2c(Nc3ccc4occc4c3)ncnc2cc1OCCCCCCC(=O)NO [Compound 6, 7-(4-(benzofuran-5-ylamino)-6-methoxyquinazolin-7-yloxy)-N-hydroxyheptanamide]",< 100,1000 to 10000,
"COc1cc2c(Oc3ccc4[nH]c(C)cc4c3F)ncnc2cc1OCCCCC(=O)NO [Compound 9, 5-(4-(4-fluoro-2-methyl-1H-indol-5-yloxy)-6-methoxyquinazolin-7-yloxy)-N-hydroxypentanamide]",100 to 1000,,
"COc1cc2c(Nc3ccc4[nH]c(C)cc4c3F)ncnc2cc1OCCCCC(=O)NO [Compound 12, 5-(4-(4-fluoro-2-methyl-1H-indol-5-ylamino)-6-methoxyquinazolin-7-yloxy)-N-hydroxypentanamide]",100 to 1000,,100 to 1000
